According to US11225657B2, “Synthetic auxotrophs with ligand dependent essential genes for biosafety” (priority 2015, dated 2022):

Key:
Format in all cases: cell-based, E. coli
tyrS.GL7 = assay: Chemical complementation of growth of ligand-dependent strain tyrS.GL7
Procedure: (§1) A second positive selection at block 140 was performed in order to enrich for desirable ligand-dependent strains. Library members surviving the negative selection were collected, residual penicillin was washed away, and cells were spread onto LB agar plates containing complementing chemicals. Resulting colonies were screened at block 150 for ligand-dependent growth by replica-spotting onto LB agar plates with and without complementing chemicals. Strains that grew only in the presence of chemicals were chosen for further characterization.
(§2) In this example, the ligand-dependent strains were generated for 5 essential genes (pheS, dnaN, tyrS, metG, and adk). Each ligand-dependent strain carried between 3 and 7 mutations at the targeted essential gene (Table 1). A mixture of 4 small molecules was used to generate the ligand-dependent strains. Each resulting strain was tested against each small molecule individually. The most promiscuous strain, metG.GL15, was complemented by all 4 ligands. Other mutants responded to 2 or 3 ligands. Additionally, escape frequency was measured on media lacking any of the 4 ligands. The highest escape frequency was 8×10^−4 for adk.GL1, while the lowest escape frequency was 3×10^−9 for pheS.GL2.
The ligand-dependent strain tyrS.GL7 and metG.GL15 were generated in under 2 weeks with a single cycle of protein engineering. […]

pheS.GL2 = assay: Chemical complementation of growth of ligand-dependent strain pheS.GL2; conditions: LB agar plates
Procedure: as §1, §2
The ligand-dependent strain pheS.GL2 was derived from a directed evolution procedure using both targeted and random mutagenesis. […]

[1] = tested on: rapamycin-dependent mutant (uniRapR insertion in dnaN); assay: Ligand-dependent growth of rapamycin-dependent dnaN-uniRapR insertion mutant at 42° C.; conditions: for nonspecific chemical complementation (growth): plates with ligand instead of rapamycin
Text: Starting with a plasmid borne copy of wild type dnaN under constitutive expression, the uniRapR domain was inserted into 4 candidate insertion sites with a 3 amino acid linker library upstream and downstream of the uniRapR domain. The resulting libraries (all four insertion sites with their linker libraries) were pooled and transformed into a strain of E. coli with a mutation on the genomic copy of dnaN that made the protein temperature sensitive (dnaN protein from genome is non-functional at 42° C. and it is bactericidal lethal).
The transformants were grown at 42° C. (lethal temperature for genomic copy so as to force bacteria to rely on the plasmid copies with the uniRapR insertions) as well as with the addition of 10 uM rapamycin (to complement the function of any rapamycin-dependent insertional fusion dnaN mutants) and allowed to grow overnight.
The extracted plasmid DNA was re-transformed into fresh dnaN-temperature sensitive strains and grown on LB agar supplemented with rapamycin at 42° C. The next day colonies were picked and re-spotted onto LB agar plates with or without rapamycin and grown at 42° C. […] The biological replicates of a 10-fold serial dilution of the rapamycin-dependent mutant grown without rapamycin (clear columns) or with 2.5 micromolar rapamycin (columns with growth) were prepared. All growth took place at 42° C.

metG.GL15 = assay: Chemical complementation of growth of ligand-dependent strain metG.GL15; conditions: panel of 30 additional ligands
Procedure: as §1, §2
To characterize the specificity of the produced ligand-dependent strains towards ligands, all strains were examined for complementation by a panel of 30 additional ligands. […]

[2] = tested on: dnaN-intein-iFKBP fusion mutants; assay: Growth of dnaN-intein-iFKBP mutants with complementing ligands at 42° C.; conditions: LB agar
Procedure: A variety of saturation mutagenesis libraries targeting a combination of surface exposed and semi-buried residues on the intein structure were then designed, ignoring the iFKBP domain as well as the dnaN sequence. The resulting plasmid library was then transformed into dnaN-temperature sensitive strains (dnaN-temp sensitive on the genome). The resulting transformants were grown on LB agar plates containing 5 chemicals: rapamycin, saccharin, acetaminophen, raspberry ketone, and benzothiazole. These chemicals were chosen based on being either useful commercially or likely to result in the desired phenotype. As before the library was grown at 42° C. so that the strains would have to rely on the plasmid borne mutagenized copies of the dnaN-intein-iFKBP fusion proteins.
The next day the libraries were scraped, and transferred to fresh media for a penicillin technique counter selection performed exactly as described before with FIG. 2 and FIG. 3. After the negative selection, intact cells were mini-prepped and the DNA was re-transformed into fresh cells and the transformants were grown on the same chemicals as indicated above at 42° C.
The next day, colonies were picked, serially diluted tenfold and spotted onto plain LB agar plates and LB agar plates containing a pool of candidate complementing ligands and grown at 42° C. (to uncover phenotype of plasmid born copy of dnaN). […]

## c1ccc2[nH]ccc2c1 [indole]
tyrS.GL7
  complementation of growth: complemented
pheS.GL2; 0.5 mM indole
  complementation of growth: strongly complemented
[1]
  nonspecific chemical complementation (growth): no growth was detected

## CO[C@H]1C[C@@H]2CC[C@@H](C)[C@@](O)(O2)C(=O)C(=O)N2CCCC[C@H]2C(=O)O[C@H]([C@H](C)C[C@@H]2CC[C@@H](O)[C@H](OC)C2)CC(=O)[C@H](C)/C=C(\C)[C@@H](O)[C@@H](OC)C(=O)[C@H](C)C[C@H](C)/C=C/C=C/C=C/1C [rapamycin]
[1]; 42° C.
  rapamycin concentration of highest activity (dose-dependent growth): 1 to 10 µM

## COC(=O)[C@@H](N)Cc1c[nH]cn1 [L-histidine methyl ester]
metG.GL15
  complementation of growth: complement

## O=C(O)Cc1c[nH]c2ccccc12 [Indole-3-acetic acid]
metG.GL15
  complementation of growth: complement

## c1ccc2scnc2c1 [benzothiazole]
tyrS.GL7
  concentration range of dose-dependent growth: 250 to 1000 µM
[2]
  colony size relative to no ligand (by eye): 2-5 times
pheS.GL2; 1 mM benzothiazole
  complementation of growth: strongly complemented
[1]
  nonspecific chemical complementation (growth): no growth was detected
